Assay results reported in US20220323429A1, “PIMAVANSERIN FOR TREATING NEURODEGENERATIVE DISEASES” (ACADIA Pharmaceuticals Inc., priority 2019, published 2022).

Experiment: Nasogastric Tube Compatibility Study, impurities (HPLC)
Format: physicochemical
Protocol: Analytical HPLC Compatibility Study experiments (Example 2) were performed on Agilent 1200 Series, or equivalent; Waters XBridge C18 column, 5 μm 150×4.6 mm; mobile phase: Solvent A: 50 mM ammonium bicarbonate, pH 8.0; Solvent B: acetonitrile/methanol, 80:20 (v/v); Flow rate: 1 mL/min; Inj. Volume 60 μL; Autosampler Temp.: 5° C.; column temperature: 40° C.; the pooled limit of quantitation was 0.05% of 0.68 mg/mL; detection UV at 210 nm; sample concentration (as free base) assay: 0.034 mg/mL, impurity: 0.34 mg/mL; standard concentration (as free base) 0.034 mg/mL; PLOQ Std. 0.05% of 0.34 mg/mL; SST solution, 1% of 0.34 mg/mL (Impurities A, C, D, E, F, and G); diluent for standards 0.1N HCl; diluent for samples 0.1N HCl; run time, 40 min; gradient method: 0 min mobile phase A (90%) and mobile phase B (10%) to 30 min mobile phase A (0%), and mobile phase B (100%); then 30.1 min to 40 min mobile phase A (90%), mobile phase B (10%).
Three samples of pimavanserin in water (n=3) were prepared as follows. The content of one capsule was dropped into a 100 mL bottle, and the empty capsule shell was discarded. Approximately 40 mL of water was added into the bottle, and the bottle was swirled until the contents were disintegrated. Syringes were secured approximately 1 meter above the benchtop, and the plungers were removed. The Hydromer coating on the weighted top of the NG tube was activated by submerging the weight assembly in water for 10 seconds. The NG tube was flushed with 20 mL of water, and remaining water in the syringe and the NG tube was expelled with the help of the syringe plunger. The weighted tip of the NG tube was placed into 100 mL volumetric flasks on the benchtop.
For each sample, the aqueous dispersion was slowly poured into the syringe, allowing it to drain through the NG tube under gravity into the 100 mL collection volumetric flask. The original bottle containing the aqueous suspension of pimavanserin capsules was rinsed twice with 15 mL of water into the same syringe/NG tube system. The dispersion remaining in the syringe and NG tube was expelled with the help of the syringe plunger. Each flask was diluted to volume with 0.33N HCl (to make a final 0.1 N HCl concentration in the flask). The samples were sonicated for 15 minutes with intermediate shaking. A stir bar was added to the flask and the solution was stirred for 2 hours. An aliquot of each solution was centrifuged for 5 minutes at 10000 rom. The supernatant was transferred to a HPLC vial and injected for impurity analysis.
A “control” sample was prepared following the sample preparation procedure described above except it was not passed through a syringe/NG system. The content of one capsule was dropped into a 100 mL volumetric flask, and the empty capsule shell was discarded. Next 70 mL of water was added into the flask and swirled until the contents were completely disintegrated. The flask was diluted to volume with 0.33 N HCl (to make final 0.1N HCl concentration). The sample was sonicated for 15 minutes with intermediate shaking. A stir bar was dropped into the flask, and the solution was stirred for 2 hours. An aliquot was taken and centrifuged for 5 minutes at 10000 rpm. The supernatant was transferred to a HPLC vial and injected for impurity analysis.

With `CC(C)COc1ccc(CNC(=O)N(Cc2ccc(F)cc2)C2CCN(C)CC2)cc1` [Pimavanserin, N-(4-Fluorophenylmethyl)-N-(1-methylpiperidin-4-yl)-N′-(4-(2-methylpropyloxy)phenylmethyl)carbamide] the Imp-D (NG Tube Control) was 0.13 % w/w, the “Impurity RRT-0.36” value (NG Tube Control) was 0.05 % w/w and the “Impurity RRT-0.54” value (NG Tube Control) was 0.07 % w/w. The “Impurity RRT-0.96” value (NG Tube Control) was 0.06 % w/w, the “Impurity RRT-0.99” value (NG Tube Control) was 0.07 % w/w and the “Total degradation products and impurities” value (NG Tube Control) was 0.38 % w/w. The Imp-D (NG Tube Mean (n = 3)) was 0.13 % w/w, the “Impurity RRT-0.36” value (NG Tube Mean (n = 3)) was 0.06 % w/w and the “Impurity RRT-0.54” value (NG Tube Mean (n = 3)) was 0.07 % w/w. The “Impurity RRT-0.85” value (NG Tube Mean (n = 3)) was 0.05 % w/w, the “Impurity RRT-0.96” value (NG Tube Mean (n = 3)) was 0.06 % w/w and the “Impurity RRT-0.99” value (NG Tube Mean (n = 3)) was 0.06 % w/w. The “Impurity RRT-1.11” value (NG Tube Mean (n = 3)) was 0.05 % w/w, the “Total degradation products and impurities” value (NG Tube Mean (n = 3)) was 0.48 % w/w and the Imp-D (NG Tube N = 1) was 0.13 % w/w. The “Impurity RRT-0.36” value (NG Tube N = 1) was 0.05 % w/w, the “Impurity RRT-0.54” value (NG Tube N = 1) was 0.07 % w/w and the “Impurity RRT-0.85” value (NG Tube N = 1) was 0.05 % w/w. The “Impurity RRT-0.96” value (NG Tube N = 1) was 0.05 % w/w, the “Impurity RRT-0.99” value (NG Tube N = 1) was 0.07 % w/w and the “Total degradation products and impurities” value (NG Tube N = 1) was 0.42 % w/w. The Imp-D (NG Tube N = 2) was 0.14 % w/w, the “Impurity RRT-0.36” value (NG Tube N = 2) was 0.06 % w/w and the “Impurity RRT-0.54” value (NG Tube N = 2) was 0.07 % w/w. For the same compound, the “Impurity RRT-0.96” value (NG Tube N = 2) was 0.06 % w/w, the “Impurity RRT-0.99” value (NG Tube N = 2) was 0.07 % w/w and the “Impurity RRT-1.11” value (NG Tube N = 2) was 0.05 % w/w. For the same compound, the “Total degradation products and impurities” value (NG Tube N = 2) was 0.45 % w/w, the Imp-D (NG Tube N = 3) was 0.13 % w/w and the “Impurity RRT-0.99” value (NG Tube N = 3) was 0.05 % w/w. The “Total degradation products and impurities” value (NG Tube N = 3) was 0.18 % w/w, the “impurity profile of compatibility samples versus control sample” value (NG tube) was “matched” and the unknown impurities (stability or recovery portions of the studies) was less than 0.1%.
